From patent US20130143800A1, “COMBINATION THERAPIES TO TREAT DIABETES” (RESEARCH DEVELOPMENT FOUNDATION, priority 2011, published 2013)
Like-named read-outs stand apart in the source and are kept apart here.

Key:
[1] = test system: HIF1α; assay: Immunoblot of HIF1α in INS-1 cells; assay type: cell-based, rat
Protocol: (§1) Immunoblot and immunoprecipitation: Immunoblots were performed as described (Dentin et al., 2008). For immunoprecipitations, cell lysates were incubated with primary antibody and 25 μl of a 50% slurry of protein G agarose beads for 4 hours with rotation at 4° C. Immunoprecipitates were washed with lysis buffer and denatured by boiling in 20 μl SDS sample buffer.
(§2) INS-1 insulinoma cells were cultured in RPMI 1640 (Mediatech) with 10% heat inactivated fetal bovine serum (Sigma), 2 mM glutamine (Mediatech), 1 mM sodium pyruvate (Mediatech), 100 μg/ml penicillin-streptomycin (Mediatech) and 0.05 mM β-mercaptoethanol. HEK 293T cells were cultured in DMEM (Mediatech) with 10% fetal bovine serum and 100 μg/ml penicillin-streptomycin. Forskolin (10 μM), LY294002 (50 μM), and DMOG (1 mM) were added to cells as indicated. Cells were exposed to rapamycin (50 nM) or to cycloheximide (100 μg/ml) overnight. For glucose and Exendin-4 treatments, INS-1 cells were glucose and serum starved for 1 hour, and stimulated with glucose or 2-deoxyglucose (20 mM) with or without Exendin-4 (10 nM). HEK 293T cells were transfected with polyethylenimine (PEI) and INS-1 cells with Lipofectamine2000 (Invitrogen; 11668-019). For HIF-1α translational reporter experiment, INS-1 cells were transfected with pLUXHIF1α5′UTR or pLUX control vector (generous gift of John Blenis). After 24 hours, cells were exposed to rapamycin overnight where indicated. After forskolin treatment, cells were harvested for Renilla/firefly luciferase activity. […]

[2] = test system: HIF; assay: HRE-luc reporter in primary hepatocytes; assay type: cell-based; conditions: cultured primary hepatocytes
Text: Plasmids expressing cDNAs for HA-HIF-1α […]/P564A (18955) were purchased from Addgene. HRE-LUC reporter construct was generously provided by Randall Johnson (UCSD).

[3] = test system: HIF1α; assay: Immunoblot of HIF1α in primary hepatocytes; assay type: cell-based; conditions: cultured primary hepatocytes
[4] = test system: hypoxia-inducible factor (HIF); assay: HRE-luc reporter transient assay in INS-1 cells; assay type: cell-based, rat
Protocol: (§3) INS-1 insulinoma cells were cultured in RPMI 1640 (Mediatech) with 10% heat inactivated fetal bovine serum (Sigma), 2 mM glutamine (Mediatech), 1 mM sodium pyruvate (Mediatech), 100 μg/ml penicillin-streptomycin (Mediatech) and 0.05 mM β-mercaptoethanol. HEK 293T cells were cultured in DMEM (Mediatech) with 10% fetal bovine serum and 100 μg/ml penicillin-streptomycin. Forskolin (10 μM), LY294002 (50 μM), and DMOG (1 mM) were added to cells as indicated. Cells were exposed to rapamycin (50 nM) or to cycloheximide (100 μg/ml) overnight. For glucose and Exendin-4 treatments, INS-1 cells were glucose and serum starved for 1 hour, and stimulated with glucose or 2-deoxyglucose (20 mM) with or without Exendin-4 (10 nM). HEK 293T cells were transfected with polyethylenimine (PEI) and INS-1 cells with Lipofectamine2000 (Invitrogen; 11668-019). For HIF-1α translational reporter experiment, INS-1 cells were transfected with pLUXHIF1α5′UTR or pLUX control vector (generous gift of John Blenis). After 24 hours, cells were exposed to rapamycin overnight where indicated. After forskolin treatment, cells were harvested for Renilla/firefly luciferase activity. Normalized luciferase activities are shown.
Plasmids expressing cDNAs for HA-HIF-1α P402A/P564A (18955) were purchased from Addgene. HRE-LUC reporter construct was generously provided by Randall Johnson (UCSD).

[5] = test system: INS-1 cells; assay: Cell size determination in INS-1 cells; assay type: cell-based, rat; conditions: co-incubation with FSK
Protocol: For cell size measurements, INS-1 cells were plated on 6 cm dishes, treated as indicated, trypsinized and resuspended in PBS. Cell diameter was measured using a particle size counter.

[6] = test system: mTORC1; assay: Immunoblot of phospho-S6 in INS-1 cells; assay type: cell-based, rat; conditions: co-incubation of mTOR inhibitor with FSK
Protocol: as §1
as §2, with “Blenis).” for “Blenis). After 24 hours, cells were exposed to rapamycin overnight where indicated. After forskolin treatment, cells were harvested for Renilla/firefly luciferase activity.”

[7] = test system: INS-1 insulinoma cells; assay: Gene profiling and Q-PCR of cAMP inducible genes in INS-1 cells; assay type: cell-based, rat; conditions: INS-1 cells exposed to FSK
Protocol: as §3
Gene profiling experiments were performed on total RNA from INS-1 cells using an Affymetrix Rat Gene Array as previously described (Zhang et al., 2005).
mRNA levels were quantified by Q-PCR analysis as previously described (Dentin, 2007). Oligonucleotides were designed to target rat gene sequences.

[8] = cited from earlier work
[9] = mildly hyperglycaemic patients with Type 2 diabetes on metformin; cited from earlier work
[10] = biological target: human GLP-1 receptor (Homo sapiens, UniProt P43220); conditions: greater affinity than native GLP-1; cited from earlier work
[11] = plus protein synthesis inhibitor
[12] = prolonged exposure, particularly under high glucose (20 mM)

Chain of human GLP-1 receptor (P43220 24-463): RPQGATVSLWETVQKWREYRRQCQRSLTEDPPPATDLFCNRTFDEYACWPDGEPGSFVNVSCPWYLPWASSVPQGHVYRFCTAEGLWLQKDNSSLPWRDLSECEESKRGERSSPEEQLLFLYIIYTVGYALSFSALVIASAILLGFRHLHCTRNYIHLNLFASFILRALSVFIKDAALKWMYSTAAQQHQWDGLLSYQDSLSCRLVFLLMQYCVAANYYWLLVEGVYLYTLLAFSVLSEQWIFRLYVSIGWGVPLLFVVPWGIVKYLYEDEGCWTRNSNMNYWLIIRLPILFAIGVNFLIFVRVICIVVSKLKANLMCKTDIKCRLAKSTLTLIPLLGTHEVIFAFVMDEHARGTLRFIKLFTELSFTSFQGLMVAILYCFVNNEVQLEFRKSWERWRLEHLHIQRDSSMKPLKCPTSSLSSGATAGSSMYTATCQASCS

For `COC(=O)CNC(=O)C(=O)OC` [DMOG, Dimethyloxalyl Glycine], the HIF1α protein levels ([1]; agent alone) was “increased”, the HRE-luc reporter activation [2] was “triggered” and the HIF1α accumulation [3] was “triggered”.

For `C=C[C@@]1(C)CC(=O)[C@]2(O)[C@@]3(C)[C@@H](O)CCC(C)(C)[C@@H]3[C@H](O)[C@H](OC(C)=O)[C@@]2(C)O1` [FSK, Forskolin], the HRE-luc reporter activation [2] was “no effect” and the HIF1α accumulation [3] was “no effect”.

With `O=S(=O)(NCCNC/C=C/c1ccc(Br)cc1)c1cccc2cnccc12` [H89] the “induction of the HRE-luc reporter by FSK” value ([4]; co-incubation with inhibitor) was “blocked” and the “induction of the HRE-luc reporter by IBMX” value ([4]; co-incubation with inhibitor) was “blocked”.

For `CC(C)Cn1c(=O)n(C)c(=O)c2[nH]cnc21` [IBMX], the HRE-luc reporter activity ([4]; time not stated) was “increased”.

For `CC(C)n1nc(-c2cc3cc(O)ccc3[nH]2)c2c(N)ncnc21` [PP242], the “effects of FSK on HIF1α induction” value ([1]; co-incubation of mTOR inhibitor with FSK) was “blocked”, the “effects of FSK on cell size” value [5] was “blocked” and the “effects of FSK on S6 phosphorylation” value [6] was “blocked”.

In the case of `C[C@@H]1C[C@@H]([C@H](O)CC2CC(=O)NC(=O)C2)C(=O)[C@@H](C)C1` [cycloheximide], the “expression of CREB target genes” value [7, 11] is reported as “enhanced” and the “expression of late phase genes like HMOX1 by FSK” value [7, 11] is reported as “reduced”.

For `CO[C@H]1C[C@@H]2CC[C@@H](C)[C@@](O)(O2)C(=O)C(=O)N2CCCC[C@H]2C(=O)O[C@H]([C@H](C)C[C@@H]2CC[C@@H](O)[C@H](OC)C2)CC(=O)[C@H](C)/C=C(\C)[C@@H](O)[C@@H](OC)C(=O)[C@H](C)C[C@H](C)/C=C/C=C/C=C/1C` [rapamycin], the “induction of CREB target genes such as NR4A2” value ([7]; plus rapamycin) was “no effect”.

In the case of Albiglutide, the half-life ([8]; after administration) is given as “four to seven”.

For Exendin-4: GLP-1 agonist, the HIF1α protein accumulation [1, 12] was “increased” and the HRE-luc reporter activity [4, 12] was “increased”.

For Lixisenatide, the half-life ([8]; in vivo) is given as 2.5 to 4 h, the glycaemic control [9] is given as “significantly improve” and the “affinity for the human GLP-1 receptor compared with native GLP-1” value [10] is given as “approximately 4 fold”.
